Experimental data reported in patent publication US20230009608A1, “GRK2 INHIBITORS AND USES THEREOF” (Cygnal Therapeutics, Inc., priority 2020, published 2023).
Read-outs that look alike come from different tables or passages of the source.

Tests used:
GRK2 = molecular target: T1, GRK2 (Homo sapiens, UniProt P25098); assay: ADPGlo GRK2 Inhibition Assay (Example 8); assay type: biochemical; conditions: read-out: A: Enzymatic GRK2: IC50 (nM) (Example 8)
T1 construct: purchased SignalChem A14-10G
T1 sequence (P25098 1-689): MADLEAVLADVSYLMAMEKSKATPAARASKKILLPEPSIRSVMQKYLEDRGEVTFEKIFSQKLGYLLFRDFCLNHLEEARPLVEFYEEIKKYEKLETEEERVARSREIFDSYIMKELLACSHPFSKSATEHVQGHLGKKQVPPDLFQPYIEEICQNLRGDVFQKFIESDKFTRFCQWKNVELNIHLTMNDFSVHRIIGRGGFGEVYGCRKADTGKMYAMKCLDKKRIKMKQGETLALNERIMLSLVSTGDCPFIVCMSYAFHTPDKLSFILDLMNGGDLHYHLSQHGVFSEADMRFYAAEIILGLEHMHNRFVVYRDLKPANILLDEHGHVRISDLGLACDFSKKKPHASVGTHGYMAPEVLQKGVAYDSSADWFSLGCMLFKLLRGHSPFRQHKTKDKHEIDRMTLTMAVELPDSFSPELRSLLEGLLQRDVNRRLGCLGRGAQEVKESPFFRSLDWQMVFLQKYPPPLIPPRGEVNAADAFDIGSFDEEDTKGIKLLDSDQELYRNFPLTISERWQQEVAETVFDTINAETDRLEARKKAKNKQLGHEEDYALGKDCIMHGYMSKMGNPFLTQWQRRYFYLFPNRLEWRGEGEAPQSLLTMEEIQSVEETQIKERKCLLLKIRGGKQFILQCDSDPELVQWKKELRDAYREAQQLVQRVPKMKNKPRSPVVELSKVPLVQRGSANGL
Procedure, shortened: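 GRK2 (15 nM 2× enzyme solution) was preincubated 15 min with compound, then reacted 180 min at room temperature with 2× mix of 20 μM ATP plus GRKtide in HEPES pH 7.5, MgCl2, Tween-20, DTT. ADP was detected by ADP-Glo luminescence. Percent inhibition was normalised to enzyme and no-enzyme controls, with dose-response curves from threefold dilutions starting at 100 μM.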

[1] = test system: PAXF1657 control empty vector cell line; assay: 7-day proliferation assay, PAXF1657 control empty vector cell line (Example 9); assay type: cell-based; conditions: 168 h; Cell Line: PAXF1657 empty vector (EV) cell line; 7-day; read-out: C: 7-day proliferation assay: IC50 GeoMean
Procedure, shortened: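 PAXF1657 isogenic lines (GRK2-overexpressing vs empty vector; CRISPR GRK2 knockout vs non-targeting control clones) seeded 500 cells/well in RPMI1640/10% FBS and treated next day with 10-point dilutions, 30 μM-0.0002 μM final, 0.3% DMSO. Media with compound refreshed after 3 days; viability read by CellTiter-Glo luminescence at day 7.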

[2] = Enzyme Assay A, ADPGlo (Example 8)

SMILES	IC50 (GRK2; [2])	IC50 [1]	IC50 (GRK2; ADPGlo GRK2 enzyme assay)
Cc1cccc2c1OCC[C@@H]2NC(=O)c1cccc(NCc2nnc(-c3ccncn3)n2C)c1	15 nM	> 10 µM	–
Cn1cc(C(NC(=O)c2cccc(NCc3nnc(-c4ccncn4)n3C)c2)c2ccccc2)cn1 (centres unmarked)	41 nM	0.0664 µM	–
Cn1c(CNc2cccc(C(=O)NC(c3ccncc3)C3CCC3)c2)nnc1-c1ccncn1 (centres unmarked)	22 nM	0.136 µM	–
COc1cccc([C@H](C)NC(=O)c2cccc(NCc3nnc(-c4ccncc4)[nH]3)c2)c1	–	> 30 µM	17.5 nM
CC(NC(=O)c1cccc(NCc2nnc(-c3ccncn3)n2C)c1)c1ccncc1 (centres unmarked)	11 nM	2.15 µM	–
Cc1cc(CNC(=O)c2cccc(NCc3nnc(-c4ccncn4)n3C)c2)n(C)n1	17 nM	4.15 µM	–
COc1ccccc1C(C#N)NC(=O)c1cccc(NCc2nnc(-c3ccncn3)n2C)c1 (centres unmarked)	–	0.468 µM	6.03 nM
Cn1c(CNc2cccc(C(=O)NCc3cccc4c3OCCO4)c2)nnc1-c1ccncn1	15 nM	2.07 µM	–
Cc1nccn1-c1ncccc1CNC(=O)c1cccc(NCc2nnc(-c3ccncn3)n2C)c1	–	> 25.8 µM	58.8 nM
O=C(N[C@H]1COc2cc(F)ccc21)c1cccc(NCc2nnc(-c3ccncc3)n2CCO)c1	23.2 nM	> 30 µM	–
Cn1c(CNc2cccc(C(=O)N[C@H]3COc4cc(F)ccc43)c2)nnc1-c1ccncn1	9.03 nM	> 30 µM	–
CC(NC(=O)c1cccc(NCc2nnc(-c3ccncn3)n2C)c1)c1ccsc1 (centres unmarked)	4.9 nM	> 10 µM	–
O=C(N[C@H]1COc2cc(F)ccc21)c1cccc(NCc2nnc(-c3ccncc3)[nH]2)c1	27.9 nM	4.07 µM	–
O=C(NCc1ncco1)c1cccc(NCc2nnc(-c3ccncc3)[nH]2)c1	25 nM	> 10 µM	–
Cc1noc(C)c1CNC(=O)c1cccc(NCc2nnc(-c3ccncc3)[nH]2)c1	24 nM	> 10 µM	–
Cn1c(CNc2cccc(C(=O)NCc3ccncc3-c3cc[nH]n3)c2)nnc1-c1ccncn1	–	> 23.3 µM	53.5 nM
C[C@@H](NC(=O)c1cccc(NCc2nnc(-c3ccncc3F)n2C)c1)c1ncccc1Cl	–	0.135 µM	54.7 nM
CCc1nc(CNC(=O)c2cccc(NCc3nnc(-c4ccncc4)[nH]3)c2)c(C)o1	8.4 nM	0.866 µM	–
COc1cc(F)cc(CNC(=O)c2cccc(NCc3nnc(-c4ccncn4)n3C)c2)c1	54 nM	> 10 µM	–
CC(NC(=O)c1cccc(NCc2nnc(-c3ccncn3)n2C)c1)c1ccc2c(c1)CC(=O)N2C (centres unmarked)	21 nM	0.158 µM	–
O=C(NCc1ncccn1)c1cccc(NCc2nnc(-c3ccncc3)[nH]2)c1	17 nM	> 10 µM	–
COc1cccc(CNC(=O)c2cccc(NCc3nnc(-c4ccncn4)n3C)c2)c1C	–	> 12.6 µM	12.6 nM

SMILES	IC50 (GRK2; [2])	IC50 [1]	IC50 (GRK2; ADPGlo GRK2 enzyme assay)
O=C(NCc1cnc2ccccn12)c1cccc(NCc2nnc(-c3ccncc3)n2CCO)c1	–	> 30 µM	5.77 nM
Cc1nccnc1C(C)NC(=O)c1cccc(NCc2nnc(-c3ccncn3)n2C)c1 (centres unmarked)	–	> 12.5 µM	61 nM
CC(C)c1ocnc1CNC(=O)c1cccc(NCc2nnc(-c3ccncn3)n2C)c1	350 nM	> 10 µM	–
C#Cc1ccc(OS(=O)(=O)F)cc1CNC(=O)c1cccc(NCc2nnc(-c3ccncc3)[nH]2)c1	28.4 nM	7.44 µM	–
Cn1c(CNc2cccc(C(=O)NC(C)(C)c3ccncc3)c2)nnc1-c1ccncn1	49 nM	> 10 µM	–
Cc1cc(C)c(CNC(=O)c2cccc(NCc3nnc(-c4ccncn4)n3C)c2)c(=O)[nH]1	–	> 30 µM	14.9 nM
Cn1c(CNc2cccc(C(=O)NC(CO)c3ccc(F)cc3F)c2)nnc1-c1ccncn1 (centres unmarked)	–	3.07 µM	83.1 nM
Cn1c(CNc2cccc(C(=O)N[C@@H]3CCOc4ccccc43)c2)nnc1-c1ccncn1	–	0.227 µM	23 nM
COc1cccc([C@@H](C)NC(=O)c2cccc(NCc3nnc(-c4ccncc4F)n3C)c2)c1	–	> 30 µM	181 nM
Cc1cncc(CNC(=O)c2cccc(NCc3nnc(-c4ccncn4)n3C)c2)c1	15 nM	> 30 µM	–
Cc1cccc2ncc(CNC(=O)c3cccc(NCc4nnc(-c5ccncc5)[nH]4)c3)n12	–	> 10.2 µM	8.9 nM
Cn1c(CNc2cccc(C(=O)NCc3cscn3)c2)nnc1-c1ccncn1	13 nM	> 30 µM	–
Cc1cnc(C(C)NC(=O)c2cccc(NCc3nnc(-c4ccncc4)[nH]3)c2)o1 (centres unmarked)	16 nM	> 10 µM	–
Cc1ccn2c(CNC(=O)c3cccc(NCc4nnc(-c5ccncn5)n4C)c3)nnc2c1	14 nM	> 30 µM	–
Cn1c(CNc2cccc(C(=O)NCc3cnccc3C(F)(F)F)c2)nnc1-c1ccncn1	39 nM	> 10 µM	–
Cn1c(CNc2cccc(C(=O)N[C@@H](CCO)c3ccccc3)c2)nnc1-c1ccncc1F	–	> 1.44 µM	28.9 nM
Cc1ccccc1[C@@H](C#N)NC(=O)c1cccc(NCc2nnc(-c3ccncn3)n2C)c1	–	0.0355 µM	4.97 nM
COc1ccc(CNC(=O)c2cccc(NCc3nnc(-c4ccncn4)n3C)c2)c(C)n1	–	> 30 µM	28.5 nM
COc1cccc([C@@H](C)NC(=O)c2cccc(NCc3nnc(-c4ccncn4)n3CCO)c2)c1	–	1.23 µM	4.91 nM
Cn1c(CNc2cccc(C(=O)NCc3ccc(C[S+](C)[O-])cc3)c2)nnc1-c1ccncn1 (centres unmarked)	170 nM	> 10 µM	–
O=C(NCc1nnc2n1CCCC2)c1cccc(NCc2nnc(-c3ccncc3)[nH]2)c1	48 nM	> 10 µM	–
CC(NC(=O)c1cccc(NCc2nnc(-c3ccncc3)[nH]2)c1)c1ccon1 (centres unmarked)	20 nM	> 10 µM	–

SMILES	IC50 (GRK2; [2])	IC50 [1]	IC50 (GRK2; ADPGlo GRK2 enzyme assay)
COc1cccc2c1OCC[C@@H]2NC(=O)c1cccc(NCc2nnc(-c3ccncn3)n2C)c1	87.5 nM	0.47 µM	–
Cn1c(CNc2cccc(C(=O)NC(CO)c3cccc(C(F)(F)F)c3)c2)nnc1-c1ccncn1 (centres unmarked)	34 nM	> 10 µM	–
CCn1cnnc1CNC(=O)c1cccc(NCc2nnc(-c3ccncn3)n2C)c1	72 nM	> 10 µM	–
COc1ccc(CNC(=O)c2cccc(NCc3nnc(-c4ccncn4)n3C)c2)cc1F	–	6.65 µM	30.1 nM
COc1nc(C)ccc1CNC(=O)c1cccc(NCc2nnc(-c3ccncn3)n2C)c1	–	> 30 µM	30.1 nM
Cn1c(CNc2cccc(C(=O)NC3CC(O)c4ccccc43)c2)nnc1-c1ccncn1 (centres unmarked)	–	> 30 µM	65 nM
CN(C)CCNc1ccccc1CNC(=O)c1cccc(NCc2nnc(-c3ccncn3)n2C)c1	–	> 30 µM	53.3 nM
Cc1noc(C)c1CNC(=O)c1cccc(NCc2nnc(-c3ccncn3)n2C)c1	19 nM	0.173 µM	–
Cc1ccc2c(c1)C(NC(=O)c1cccc(NCc3nnc(-c4ccncn4)n3C)c1)CO2 (centres unmarked)	–	0.332 µM	18.8 nM
Cc1cc(CNC(=O)c2cccc(NCc3nnc(-c4ccncn4)n3C)c2)nn1C	41 nM	> 30 µM	–
Cn1c(CNc2cccc(C(=O)NCc3ccc(C(F)F)nc3)c2)nnc1-c1ccncn1	–	> 4.16 µM	44.6 nM
O=C(N[C@@H]1COCc2c(Cl)cccc21)c1cccc(NCc2nnc(-c3ccncc3)n2CCO)c1	9.91 nM	0.0242 µM	–
COc1ccc(F)c(CNC(=O)c2cccc(NCc3nnc(-c4ccncn4)n3C)c2)c1	–	0.917 µM	20 nM
Cn1c(CNc2cccc(C(=O)NCc3cnn(CCF)c3)c2)nnc1-c1ccncn1	–	> 5.6 µM	82.9 nM
COc1ncc(Br)cc1CNC(=O)c1cccc(NCc2nnc(-c3ccncn3)n2C)c1	–	0.61 µM	21.5 nM
C#Cc1ccc(CNC(=O)c2cccc(NCc3nnc(-c4ccncn4)n3C)c2)c(F)c1	–	0.413 µM	12 nM
Cn1c(CNc2cccc(C(=O)NCc3cccc4c3OCO4)c2)nnc1-c1ccncn1	–	0.681 µM	13.2 nM
COc1ncc(Br)cc1CNC(=O)c1ccnc(NCc2nnc(-c3ccncn3)n2C)c1	–	> 30 µM	28.1 nM
Cn1c(CNc2cccc(C(=O)NC3(c4ccccc4)CC3)c2)nnc1-c1ccncn1	34 nM	> 10 µM	–
Cc1cc(C)n(C)c(=O)c1CNC(=O)c1cccc(NCc2nnc(-c3ccncn3)n2C)c1	–	1.7 µM	9.97 nM
